Columns and labels:
[1] = target: GRPR (Mus musculus, UniProt P21729); assay type: cell-based
[2] = system: pyramidal neurons in slices from GRPR knockout mice; assay type: cell-based, mouse
[3] = system: GABAA receptors; experiment: block of sIPSCs in pyramidal neurons of the lateral amygdala; assay type: cell-based, mouse; conditions: picrotoxin 50 uM; n=10; holding potential -70 mV
Description: Amygdala slices (250-300 um) were prepared from 3-5 week old control and GRPR knockout mice (littermates) with a vibratome. Slices were continuously superfused in solution containing (in mM): 119 NaCl, 2.5 KCl, 2.5 CaCl2,1.0 MgSO4, 1.25 NaH2PO4, 26.0 NaHCO3, 10 glucose, and equilibrated with 95% O2 and 5% CO2 [pH 7.3-7.4] at room temperature. Whole-cell recordings of evoked compound EPSCs or spontaneous GABA-mediated IPSCs were obtained from pyramidal cells in the lateral amygdala under visual guidance (DIG/ infrared optics) with an EPC-9 amplifier and Pulse v8.09 software (HEKA Elektronik). […] Series resistance was monitored throughout experiment and was in a range of […]. […] The EPSC amplitudes were measured as the difference between the mean current during a prestimulus baseline and the mean current over a 2 ms-window at the peak of the response. […]
The spontaneous IPSCs were recorded on videotape for off line analysis in the presence of 20 uM CNQX. Data were analyzed with the Mini Analysis Program v5.2.4 (Synaptosoft Inc., Decatur, Ga.; Bolshakov et al., 2000).
We recorded spontaneous inhibitory postsynaptic currents (sIPSCs) in the pyramidal neurons having blocked the AM PA (a-amino-3-hydroxy-5-methyl-4-isoxazolepropionic acid) receptor-mediated responses (FIG. 2) with CNQX (6-cyano-7-nitroquinoxaline-2,3-dione, 20 uM).

Sequence of GRPR (P21729 whole entry): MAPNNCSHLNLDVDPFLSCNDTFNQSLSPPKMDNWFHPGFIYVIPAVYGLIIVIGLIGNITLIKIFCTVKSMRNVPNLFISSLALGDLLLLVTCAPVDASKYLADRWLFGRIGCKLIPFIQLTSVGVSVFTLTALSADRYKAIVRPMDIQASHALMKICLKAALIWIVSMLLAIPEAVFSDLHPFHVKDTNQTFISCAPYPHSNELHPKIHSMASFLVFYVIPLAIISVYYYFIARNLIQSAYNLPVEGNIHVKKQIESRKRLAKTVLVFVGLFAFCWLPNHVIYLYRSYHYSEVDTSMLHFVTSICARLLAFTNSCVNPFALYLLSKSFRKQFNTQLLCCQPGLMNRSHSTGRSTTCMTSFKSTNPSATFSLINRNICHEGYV

For `NC1=N[C@H](O)[C@H]2[C@H]3O[C@]4(O)O[C@@H]([C@@H](O)[C@@]2(N1)[C@@H]4O)[C@]3(O)CO` [TTX, tetrodotoxin], the “effect of GRP on frequency of sIPSCs in the presence of TTX” value [1] was “blocking the effects of the agonist”.
For gastrin-releasing peptide [GRP], the “effect of GRP on frequency of sIPSCs (in words)” value [2] was “failed to increase” and the “frequency of sIPSCs” value [2] was 5.64±0.67 Hz.
With picrotoxin the “block of sIPSCs” value [3] was “completely blocked”.
